Measurements taken from article PMC12059162 (Scientific Reports, 2025).

How the values were obtained:
PANC-1 cells [1] = assay: Annexin-V/7AAD early and late apoptosis flow cytometry; format: cell-based, human; settings: PANC-1, 0.5 µΜ, 72 h
Description: For apoptosis measurements, Annexin-V positive/7AAD (7-Aminoactinomycin D) negative, early apoptotic and Annexin-V/ 7AAD double positive, late apoptotic cells were differentiated using a BD FACSCalibur (BD FACSCalibur, Becton-Dickinson, San Jose, CA, USA) flow cytometer[49],[50]. […] After 24, 48, and 72 h treatment, cells were harvested with 300 µL TrypLE (Sigma Ltd. St. Louis, MO, USA). Fresh cell culture medium was then added to stop the effect of TrypLE and the harvested cells were centrifuged for 5 min (300 g). Then, the supernatant was removed, and cells were resuspended in 300 µL of Annexin binding buffer (Sony Biotechnology, Weybridge, UK). For labelling, 3–3 µL of Annexin-V-FITC (Sony Biotechnology, Weybridge, UK) and 7AAD (Sony Biotechnology, Weybridge, UK) were added, followed by 10 min incubation at room temperature in the dark. For flow cytometric analysis (BD FACSCalibur, Becton–Dickinson, San Jose, CA, USA), a minimum of 10^4 cells/sample was measured. Annexin-V was detected using the FL-1 channel (530/30), and 7AAD was detected using the FL-3 channel (670 LP). In each treatment group, 3 parallel samples were analysed. The results were evaluated using Flowing Software 2.5.1 (Turku Centre of Biotechnology, Turku, Finland).

PANC-1 cells [2] = assay: Holographic microscopy morphometry (HoloMonitor M4); format: cell-based, human; settings: PANC-1, 0.5 µM, 72 h
Description: To follow the morphometric changes, a holographic transmission microscope (HoloMonitor M4; Phase Holographic Imaging AB, Lund, Sweden) was used, which uses a laser to produce 3D images of the cells[51],[52]. This […] imaging technique allows us to monitor cell morphological changes in real-time. First, the cells were seeded at a concentration of 3.5 × 10^5 cells/flask/4000 µL cell culture medium. […] At least 5 images were taken from each culture dish, taking care to assess different fields of view. These images were evaluated using the microscope software (Hstudio M4). We assessed the average area and the average optical thickness of the cells.

[3] = cited from earlier work
in vitro [4] = settings: human
in vitro [5] = settings: mouse
MIA PaCa-2 cells [6] = assay: alamarBlue cell viability; settings: Homo sapiens, MIA PaCa-2, 72 h
A2058 cells = assay: alamarBlue cell viability; settings: Homo sapiens, A2058, 72 h, read-out: Viability (%) after 72-h treatment
EBC-1 cells = assay: alamarBlue cell viability; settings: Homo sapiens, EBC-1, 72 h
COLO-205 cells = assay: alamarBlue cell viability; settings: Homo sapiens, COLO 205, 72 h, read-out: Viability (%) after 72-h treatment
cleaved caspase-3 = assay: Human Apoptosis Array in PANC-1 cells; settings: PANC-1, 0.5 µM, 72 h
FADD = assay: Human Apoptosis Array in PANC-1 cells; settings: PANC-1, 0.5 µM, 72 h
SMAC = assay: Human Apoptosis Array in PANC-1 cells; settings: PANC-1, 0.5 µM, 72 h
phospho-p53 (S392) = assay: Human Apoptosis Array in PANC-1 cells; settings: PANC-1, 0.5 µM, 72 h
phospho-p53 (S46) = assay: Human Apoptosis Array in PANC-1 cells; settings: PANC-1, 0.5 µM, 72 h
phospho-p53 (S15) = assay: Human Apoptosis Array in PANC-1 cells; settings: PANC-1, 0.5 µM, 72 h
cIAP-1 = assay: Human Apoptosis Array in PANC-1 cells; settings: PANC-1, 0.5 µM, 72 h
HSP60 = assay: Human Apoptosis Array in PANC-1 cells; settings: PANC-1, 0.5 µM, 72 h
XIAP = assay: Human Apoptosis Array in PANC-1 cells; settings: PANC-1, 0.5 µM, 72 h
PANC-1 cells [7] = assay: Cell cycle analysis (PI, flow cytometry)
MIA PaCa-2 cells [8] = assay: Cell cycle analysis (PI, flow cytometry); settings: MIA PaCa-2, 0.5 µM, 48 h
PANC-1 cells [9] = assay: xCELLigence SP impedimetric cell viability; settings: Homo sapiens, PANC-1, 72 h
p53 = assay: qPCR apoptotic gene expression in PANC-1 cells; settings: PANC-1, 25 µM, 48 h, normalised to DMSO control
TRAIL = assay: qPCR apoptotic gene expression in PANC-1 cells; settings: PANC-1, 25 µM, any of the time points (3-48 h)
caspase-3/7 = assay: CellEvent Caspase-3/7 activity imaging in PANC-1 cells; settings: PANC-1, 0.5 µM, 72 h, normalised to DMSO control (n = 1)
[10] = read-out: IC50 values (μM) 72 hours
[11] = read-out: Viability (%) after 72-h treatment

**Q.** For `Cc1ccccc1CN1C(=O)C2=C(CCN(Cc3ccccc3)C2)N2CCN=C12` [ONC201, reference compound], which Apoptosis-inducing effect (PANC-1 cells [1]) is on record?
**A.** no apoptosis-inducing effect

**Q.** And the “Effect on cell morphology” value (PANC-1 cells [2])?
**A.** did not affect cell morphology

**Q.** And the logP [3]?
**A.** 2.3

**Q.** And the viability at 72 h, 0.37 µM (in vitro [4])?
**A.** 115 ± 1.4%

**Q.** What about the viability at 72 h, 8.6 µM (in vitro [4]) of the same compound?
**A.** 88.3 ± 7.4%

**Q.** What about the viability at 72 h, 25 µM (in vitro [4]) of the same compound?
**A.** 74.9 ± 8.6%

**Q.** What about the viability at 72 h, 0.5 µM (in vitro [5]) of the same compound?
**A.** 99.4 ± 1.8%

**Q.** And the viability at 72 h, 10 µM (in vitro [5])?
**A.** 89.2 ± 6.3%

**Q.** What about the viability at 72 h, 25 µM (in vitro [5]) of the same compound?
**A.** 89 ± 5.6%

**Q.** And the IC50 (MIA PaCa-2 cells [6]; [10])?
**A.** 1.12 µM

**Q.** And the viability at 0.5 µM (MIA PaCa-2 cells [6]; [11])?
**A.** 77.6 ± 2.3%

**Q.** And the viability at 10 µM (MIA PaCa-2 cells [6]; [11])?
**A.** 44.6 ± 2%

**Q.** And the viability at 25 µM (MIA PaCa-2 cells [6]; [11])?
**A.** 55 ± 1.6%

**Q.** What about the viability at 0.5 µM (A2058 cells) of the same compound?
**A.** 101 ± 1.7%

**Q.** What about the viability at 10 µM (A2058 cells) of the same compound?
**A.** 73.7 ± 4.5%

**Q.** And the viability at 25 µM (A2058 cells)?
**A.** 62.1 ± 8.7%

**Q.** What about the IC50 (EBC-1 cells; [10]) of the same compound?
**A.** 5.72 µM

**Q.** What about the viability at 0.5 µM (EBC-1 cells; [11]) of the same compound?
**A.** 101 ± 1.6%

**Q.** And the viability at 10 µM (EBC-1 cells; [11])?
**A.** 47.1 ± 2.2%

**Q.** What about the viability at 25 µM (EBC-1 cells; [11]) of the same compound?
**A.** 45.5 ± 2%

**Q.** What about the viability at 0.5 µM (COLO-205 cells) of the same compound?
**A.** 97 ± 2.5%

**Q.** What about the viability at 10 µM (COLO-205 cells) of the same compound?
**A.** 69.7 ± 2.4%

**Q.** And the viability at 25 µM (COLO-205 cells)?
**A.** 71 ± 0.7%

**Q.** What about the “cleaved caspase-3 protein level” value (cleaved caspase-3) of the same compound?
**A.** significantly increased

**Q.** What about the FADD protein level (FADD) of the same compound?
**A.** significantly increased

**Q.** What about the SMAC protein level (SMAC) of the same compound?
**A.** significantly increased

**Q.** And the “phospho-p53 (S392) protein level” value (phospho-p53 (S392))?
**A.** significantly increased

**Q.** And the “phospho-p53 (S46) protein level” value (phospho-p53 (S46))?
**A.** significantly increased

**Q.** And the “phospho-p53 (S15) protein level” value (phospho-p53 (S15))?
**A.** significantly increased

**Q.** And the cIAP-1 protein level (cIAP-1)?
**A.** increase

**Q.** What about the HSP60 protein level (HSP60) of the same compound?
**A.** increase

**Q.** What about the XIAP protein level (XIAP) of the same compound?
**A.** increase

**Q.** What about the “Effect on cell cycle” value (PANC-1 cells [7]; PANC-1, 0.5 µM, 48 h) of the same compound?
**A.** did not have any influence

**Q.** What about the “Increase in cell number in the G2/M phase” value (PANC-1 cells [7]; PANC-1, 10 and 25 µM, 72 h) of the same compound?
**A.** 2.1 fold

**Q.** And the “Effect on cell cycle” value (MIA PaCa-2 cells [8])?
**A.** did not have any influence

**Q.** What about the IC50 (PANC-1 cells [9]; [10]) of the same compound?
**A.** 6.1 µM

**Q.** And the viability at 0.5 µM (PANC-1 cells [9]; [11])?
**A.** 105 ± 5.2%

**Q.** What about the viability at 10 µM (PANC-1 cells [9]; [11]) of the same compound?
**A.** 16 ± 2.4%

**Q.** What about the viability at 25 µM (PANC-1 cells [9]; [11]) of the same compound?
**A.** 10.2 ± 2.2%

**Q.** What about the “p53 mRNA expression” value (p53) of the same compound?
**A.** 3.3 fold

**Q.** And the “TRAIL induction (mRNA)” value (TRAIL)?
**A.** not detected

**Q.** And the “Number of caspase-3/7 active cells, increase” value (caspase-3/7)?
**A.** 6.6 fold
